In patent US7429374B2, “Process for the measurement of the potency of glatiramer acetate” (Teva Pharmaceutical Industries, Ltd., priority 2001, dated 2008):

B1: Human MBP: human MBP (myelin basic protein) (protein, UniProt P02686 1-304, looked up)
Myelin basic protein: MGNHAGKRELNAEKASTNSETNRGESEKKRNLGELSRTTSEDNEVFGEADANQNNGTSSQDTAVTDSKRTADPKNAWQDAHPADPGSRPHLIRLFSRDAPGREDNTFKDRPSESDELQTIQEDSAATSESLDVMASQKRPSQRHGSKYLATASTMDHARHGFLPRHRDTGILDSIGRFFGGDRGAPKRGSGKDSHHPARTAHYGSLPQKSHGRTQDENPVVHFFKNIVTPRTPPPSQGKGRGLSLSRFSWGAEGQRPGFGYGGRASDYKSAHKGFKGVDAQGTLSKIFKLGGRDSRSGSPMARR

Key:
[1] = tested on: GA RS-specific T cells; experiment: In vitro potency test: IL-2 secretion by GA RS-specific LN cells, ELISA, % potency relative to GA RS; format: cell-based, female (SJLXBALB/C)F1 mice; settings: for Response of GA RS-specific T cells (IL-2 secretion), in words: primary culture of LN cells from mice immunized with 250 μg GA RS in CFA; for % Potency: specificity of GA RS-specific LN cells, antigens incubated overnight
Experimental: Mice were immunized with 250 μg GA RS in CFA. GA RS was produced as described in U.S. Pat. No. 5,800,808 or PCT International Publication No. WO 00/05250. The GA RS was chosen based on the chemical and biological properties being in the midrange of Copaxone® as described above. After 9-11 days, a primary culture of LN cells was prepared, and the cells were incubated with various concentrations of GA RS and with test samples. Following 18-21 hours of incubation at 37° C. in a humidified CO2 incubator, the culture media were collected and the level of IL-2 was measured by ELISA. The T-cell response to each DS batch were tested at two concentrations (within the linear range), and the % potency of the DS batch was calculated relative to that of the GA RS batch.
The GA RS emulsion was transferred into an insulin syringe. Then, 100 μl of the emulsion (250 μg GA per mouse) were injected into four footpads of each naive mouse (about 25 μl into each footpad). The immunized mice were used for the in vitro test 9-11 days following immunization.
The UV lamp was turned on 20 minutes before commencing work in the laminar hood and turned off when work began. Prior to placing any reagents under the hood, the working surface was cleaned with a 70% ethanol solution. Enriched DCCM1 medium was prepared. The enriched DCCM1 and the RPMI medium were pre-warmed at 37° C. prior to use. The mice were sacrificed by cervical dislocation. Each mouse was placed on its back and fastened to a support platform. The abdomen was sprayed with 70% alcohol and a middle incision was made (a 2 cm-long incision was usually sufficient). The skin was intersected towards the hind legs and LN was located from the hind and forelegs. The LN was transferred into a sterile petri dish containing about 5 ml sterile RPMI medium and the LN cells were teased out by a sterile syringe plunger. The sterile syringe was used to collect the cells' suspension from the petri dish (the collection of tissue debris was avoided by using sterile needles). The cells' suspension were transferred into a 50 ml sterile tube.
The cells were centrifuged at 200×g for 10 minutes at room temperature. The cells were re-suspended to a density of 1×10^7 cells/ml with enriched DCCM1.
The in vitro bioassay was performed in a 24-well, flat-bottomed tissue culture test plate at a final volume of 1 ml.
About 10-20 mg of, GA DS from the batch to be tested was weighed accurately and dissolved with ddH2O to 1.2 mg/ml. The OD minus blank of the solution was measured at 275 nm. The OD of the sample was adjusted to approx. 1.03 with ddH2O to obtain a stock solution of 1 mg/ml of GA. The stock solution of 100 μg/ml was prepared with enriched DCCM1 and filtered through a 0.2μ cellulose acetate filter. The stock solution was diluted to 10 and 20 μg/ml as described in Table 2 for the RS batch.
0.5 ml of each GA RS dilution, thus the final concentrations of GA RS in the wells were 25, 15, 10, 5, 2.5 and 1 μg/ml.
0.5 ml of each sample dilution, thus the final concentrations of the test sample in the well were 5 and 10 μg/ml.
The density of the cells was changed depending upon their response to GA. The cultures were kept at 37° C. in a humidified 5% CO2 incubator for 18-21 hrs. The plate was centrifuged at 200×g for 10 minutes at room temperature. The supernatants were collected into cryotubes. The supernatants were divided into working aliquots to avoid repeated freezing/thawing of the samples. The supernatants were stored at −20° C. for up to one week. The hood was cleaned with 70% ethanol solution and dried with Kim wipes. The gloves were removed and the hands were immediately washed with disinfectant.
All samples were tested in triplicate. […]

[2] = tested on: exacerbating-remitting multiple sclerosis; settings: daily subcutaneous injections (Johnson, 1987); cited from earlier work
[3] = tested on: EAE; settings: 250 μg/mouse of GA in CFA; this mouse strain
Experimental: The control group in this experiment was injected with CFA alone. Ten days following immunization, LN cells were removed from the both groups of mice.

[4] = tested on: experimental autoimmune encephalomyelitis (EAE); settings: various animal species (Lando et al., 1979; Aharoni, 1993); cited from earlier work

Row | Molecule | Response of GA RS-specific T cells (IL-2 secretion), in words [1] | progression of disability [2] | relapse rate [2] | blocking of EAE [3] | suppression of EAE [4] | % Potency [1]
1 | OC[C@@H](O)[C@@H](O)[C@H](O)[C@H](O)CO [mannitol] | did not affect or interfere | – | – | – | – | –
2 | L-glutamic acid polymer with L-alanine, L-lysine and L-tyrosine, acetate (salt) [GA] | – | slow progression of disability | reduce the relapse rate | at least 80% | suppress | –
3 | Lysozyme: a non-relevant basic protein | not recognized | – | – | – | – | 0%
4 | MBP pp.87-99: the MBP immunodominant peptide pp. 87-99 (an encephalitogenic peptide) (SRPHLIRLFSRDA; UniProt P02686 87-99, looked up, fragment) | did not respond | – | – | – | – | 0%
5 | B1 | did not respond | – | – | – | – | 0%
